# Measurements taken from patent publication US6737383B1, “Herbicidal oxadiazolidines” (priority 1999, dated 2004).
# What was measured:
# [1] = system: rape; test: Test B pre/postemergence rape; format: in vivo, Brassica napus; conditions: for Rape plant response rating: scale of 0 to 10 where 0 is no effect and 10 is complete control
# Procedure, shortened: (§1)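 Response is a visual 0-to-10 score relative to untreated plants, where 0 means no effect and 10 means complete control, taken twelve to sixteen days after application. Treatments went onto soil at planting and onto foliage of 1- to 4-leaf plants, using a surfactant-containing non-phytotoxic solvent.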
# [2] = system: dallisgrass; test: Test D dallisgrass; format: in vivo, Paspalum dilatatum; conditions: Postemergence, 0 to 100 scale
# [3] = system: guineagrass; test: Test D guineagrass; format: in vivo, Panicum maximum; conditions: Postemergence, 0 to 100 scale
# [4] = system: pigweed; test: Test B pre/postemergence pigweed; format: in vivo, Amaranthus retroflexus; conditions: for Redroot pigweed plant response rating: scale of 0 to 10 where 0 is no effect and 10 is complete control
# Procedure, shortened: as §1
# [5] = system: large crabgrass; test: Test D large crabgrass; format: in vivo, Digitaria sanguinalis; conditions: Postemergence, 0 to 100 scale
# [6] = system: common groundsel; test: Test D common groundsel; format: in vivo, Senecio vulgaris; conditions: Postemergence, 0 to 100 scale
# [7] = system: morningglory; test: Test B pre/postemergence morningglory; format: in vivo, Ipomoea hederacea; conditions: for Morningglory plant response rating: scale of 0 to 10 where 0 is no effect and 10 is complete control
# Procedure, shortened: as §1
# [8] = system: tall mallow; test: Test D tall mallow; format: in vivo, Malva sylvestris; conditions: Postemergence, 0 to 100 scale
# [9] = system: common ragweed; test: Test D common ragweed; format: in vivo, Ambrosia elatior; conditions: Postemergence, 0 to 100 scale
# [10] = system: giant foxtail; test: Test B pre/postemergence giant foxtail; format: in vivo, Setaria faberii; conditions: for Giant foxtail plant response rating: scale of 0 to 10 where 0 is no effect and 10 is complete control
# Procedure, shortened: as §1
# [11] = Postemergence, Rate 125 g/ha, scale 0 to 10, 0 is no effect, 10 is complete control
# [12] = Preemergence, Rate 62 g/ha, scale 0 to 10 (0 no effect, 10 complete control)
# [13] = Rate 500 g/ha, Postemergence, scale 0 to 10, 0 no effect, 10 complete control
# [14] = Rate 16 g/ha, 0 no injury, 100 complete control
# [15] = Rate 32 g/ha, 0 no injury, 100 complete control
# [16] = Rate 64 g/ha, 0 no injury, 100 complete control
# [17] = Rate 125 g/ha, 0 no injury, 100 complete control
smiles,measurement,setting,value
CCC(CC)n1c(=O)on(C(=O)N(c2ccc(F)cc2)C(C)C)c1=O [Compound 358],"Plant response rating, Rape",[1]; [11],1
same,"Plant response rating, Rape",[1]; [12],0
same,Rape plant response rating (0 to 10 scale),"[1]; Preemergence, Rate 125 g/ha",0
same,Rape plant response rating,"[1]; Preemergence, Rate 250 g/ha",4
same,Rape plant response rating,"[1]; Preemergence, Rate 500 g/ha",4
same,Rape plant response rating,"[1]; Rate 62 g/ha, Postemergence",1
same,"Plant response rating, Rape",[1]; [13],4
same,"Plant response rating, Dallisgrass",[2]; [14],0
same,"Plant response rating, Dallisgrass",[2]; [15],30
same,"Plant response rating, Dallisgrass",[2]; [16],100
same,"Plant response rating, Dallisgrass",[2]; [17],100
same,"Plant response rating, Dallisgrass",[2]; Rate 250 g/ha,100
same,"Plant response rating, Guineagrass",[3]; [14],0
same,"Plant response rating, Guineagrass",[3]; [15],0
same,Guineagrass plant response rating,[3]; [16],20
same,"Plant response rating, Guineagrass",[3]; [16],100
same,"Plant response rating, Guineagrass",[3]; [17],100
same,"Plant response rating, Guineagrass",[3]; Rate 250 g/ha,100
same,"Plant response rating, Redroot pigweed",[4]; [11],3
same,"Plant response rating, Redroot pigweed",[4]; [12],7
same,Redroot pigweed plant response rating (0 to 10 scale),"[4]; Preemergence, Rate 125 g/ha",9
same,Redroot pigweed plant response rating,"[4]; Preemergence, Rate 250 g/ha",10
same,Redroot pigweed plant response rating,"[4]; Preemergence, Rate 500 g/ha",10
same,Redroot pigweed plant response rating,"[4]; Rate 62 g/ha, Postemergence",3
same,"Plant response rating, Redroot pigweed",[4]; [13],6
same,"Plant response rating, Large crabgrass",[5]; [14],0
same,"Plant response rating, Large crabgrass",[5]; [15],40
same,"Plant response rating, Large crabgrass",[5]; [16],100
same,"Plant response rating, Large crabgrass",[5]; [17],100
same,"Plant response rating, Large crabgrass",[5]; Rate 250 g/ha,100
same,"Plant response rating, Com. groundsel",[6]; [14],0
same,"Plant response rating, Com. groundsel",[6]; [15],0
same,"Plant response rating, Com. groundsel",[6]; [16],0
same,"Plant response rating, Com. groundsel",[6]; Rate 250 g/ha,40
same,"Plant response rating, Morningglory",[7]; [11],5
same,"Plant response rating, Morningglory",[7]; [12],0
same,Morningglory plant response rating (0 to 10 scale),"[7]; Preemergence, Rate 125 g/ha",0
same,Morningglory plant response rating,"[7]; Preemergence, Rate 250 g/ha",3
same,Morningglory plant response rating,"[7]; Preemergence, Rate 500 g/ha",5
same,Morningglory plant response rating,"[7]; Rate 62 g/ha, Postemergence",3
same,"Plant response rating, Morningglory",[7]; [13],7
same,"Plant response rating, Tall Mallow",[8]; [14],0
same,"Plant response rating, Tall Mallow",[8]; [15],30
same,Tall Mallow plant response rating,[8]; [16],50
same,Tall Mallow plant response rating,[8]; [17],70
same,"Plant response rating, Tall Mallow",[8]; Rate 250 g/ha,80
same,"Plant response rating, C. ragweed",[9]; [14],0
same,"Plant response rating, C. ragweed",[9]; [15],0
same,"Plant response rating, C. ragweed",[9]; [16],—30
same,"Plant response rating, C. ragweed",[9]; [17],70
same,"Plant response rating, C. ragweed",[9]; Rate 250 g/ha,70
same,"Plant response rating, Giant foxtail",[10]; [11],8
same,"Plant response rating, Giant foxtail",[10]; [12],10
same,Giant foxtail plant response rating (0 to 10 scale),"[10]; Preemergence, Rate 125 g/ha",10
same,Giant foxtail plant response rating,"[10]; Preemergence, Rate 250 g/ha",10
same,Giant foxtail plant response rating,"[10]; Preemergence, Rate 500 g/ha",10
same,Giant foxtail plant response rating,"[10]; Rate 62 g/ha, Postemergence",3
same,"Plant response rating, Giant foxtail",[10]; [13],8
CC(C)N(C(=O)n1oc(=O)n(CC2CCCO2)c1=O)c1ccc(F)cc1 (centres unmarked) [Compound 343],"Plant response rating, Rape",[1]; [11],0
same,"Plant response rating, Rape",[1]; [12],0
same,Rape plant response rating (0 to 10 scale),"[1]; Preemergence, Rate 125 g/ha",0
same,Rape plant response rating,"[1]; Preemergence, Rate 250 g/ha",4
same,Rape plant response rating,"[1]; Preemergence, Rate 500 g/ha",6
same,Rape plant response rating,"[1]; Rate 62 g/ha, Postemergence",0
same,"Plant response rating, Rape",[1]; [13],3
same,"Plant response rating, Dallisgrass",[2]; [14],0
same,"Plant response rating, Dallisgrass",[2]; [15],30
same,"Plant response rating, Dallisgrass",[2]; [16],90
same,"Plant response rating, Dallisgrass",[2]; [17],90
same,"Plant response rating, Dallisgrass",[2]; Rate 250 g/ha,100
same,"Plant response rating, Guineagrass",[3]; [14],0
same,"Plant response rating, Guineagrass",[3]; [15],0
same,Guineagrass plant response rating,[3]; [16],80
same,"Plant response rating, Guineagrass",[3]; [16],0
same,"Plant response rating, Guineagrass",[3]; [17],50
same,"Plant response rating, Guineagrass",[3]; Rate 250 g/ha,100
same,"Plant response rating, Redroot pigweed",[4]; [11],0
same,"Plant response rating, Redroot pigweed",[4]; [12],10
same,Redroot pigweed plant response rating (0 to 10 scale),"[4]; Preemergence, Rate 125 g/ha",10
same,Redroot pigweed plant response rating,"[4]; Preemergence, Rate 250 g/ha",10
same,Redroot pigweed plant response rating,"[4]; Preemergence, Rate 500 g/ha",10
same,Redroot pigweed plant response rating,"[4]; Rate 62 g/ha, Postemergence",0
same,"Plant response rating, Redroot pigweed",[4]; [13],5
same,"Plant response rating, Large crabgrass",[5]; [14],0
same,"Plant response rating, Large crabgrass",[5]; [15],30
same,"Plant response rating, Large crabgrass",[5]; [16],90
same,"Plant response rating, Large crabgrass",[5]; [17],100
same,"Plant response rating, Large crabgrass",[5]; Rate 250 g/ha,100
same,"Plant response rating, Com. groundsel",[6]; [14],0
same,"Plant response rating, Com. groundsel",[6]; [15],40
same,"Plant response rating, Com. groundsel",[6]; [16],100
same,"Plant response rating, Com. groundsel",[6]; [17],100
same,"Plant response rating, Com. groundsel",[6]; Rate 250 g/ha,100
same,"Plant response rating, Morningglory",[7]; [11],2
same,"Plant response rating, Morningglory",[7]; [12],0
same,Morningglory plant response rating (0 to 10 scale),"[7]; Preemergence, Rate 125 g/ha",2
same,Morningglory plant response rating,"[7]; Preemergence, Rate 500 g/ha",3
same,Morningglory plant response rating,"[7]; Rate 62 g/ha, Postemergence",2
same,"Plant response rating, Morningglory",[7]; [13],9
same,"Plant response rating, Tall Mallow",[8]; [14],0
same,"Plant response rating, Tall Mallow",[8]; [15],0
same,Tall Mallow plant response rating,[8]; [16],0
same,Tall Mallow plant response rating,[8]; [17],0
same,"Plant response rating, Tall Mallow",[8]; Rate 250 g/ha,30
same,"Plant response rating, C. ragweed",[9]; [14],0
same,"Plant response rating, C. ragweed",[9]; [15],0
same,"Plant response rating, C. ragweed",[9]; [16],0
same,"Plant response rating, C. ragweed",[9]; [17],60
same,"Plant response rating, C. ragweed",[9]; Rate 250 g/ha,90
same,"Plant response rating, Giant foxtail",[10]; [11],7
same,"Plant response rating, Giant foxtail",[10]; [12],10
same,Giant foxtail plant response rating (0 to 10 scale),"[10]; Preemergence, Rate 125 g/ha",10
same,Giant foxtail plant response rating,"[10]; Preemergence, Rate 250 g/ha",10
same,Giant foxtail plant response rating,"[10]; Preemergence, Rate 500 g/ha",10
same,Giant foxtail plant response rating,"[10]; Rate 62 g/ha, Postemergence",7
same,"Plant response rating, Giant foxtail",[10]; [13],9
COCC(C)n1c(=O)on(C(=O)N(c2ccc(F)cc2F)C(C)C)c1=O (centres unmarked) [Compound 357],"Plant response rating, Rape",[1]; [11],0
same,"Plant response rating, Rape",[1]; [12],0
same,Rape plant response rating (0 to 10 scale),"[1]; Preemergence, Rate 125 g/ha",2
same,Rape plant response rating,"[1]; Preemergence, Rate 250 g/ha",8
same,Rape plant response rating,"[1]; Preemergence, Rate 500 g/ha",8
same,Rape plant response rating,"[1]; Rate 62 g/ha, Postemergence",0
same,"Plant response rating, Rape",[1]; [13],4
same,"Plant response rating, Dallisgrass",[2]; [14],0
same,"Plant response rating, Dallisgrass",[2]; [15],20
same,"Plant response rating, Dallisgrass",[2]; [16],100
same,"Plant response rating, Dallisgrass",[2]; [17],100
same,"Plant response rating, Dallisgrass",[2]; Rate 250 g/ha,100
same,"Plant response rating, Guineagrass",[3]; [14],0
same,"Plant response rating, Guineagrass",[3]; [15],0
same,Guineagrass plant response rating,[3]; [16],60
same,"Plant response rating, Guineagrass",[3]; [16],20
same,"Plant response rating, Guineagrass",[3]; [17],70
same,"Plant response rating, Guineagrass",[3]; Rate 250 g/ha,100
same,"Plant response rating, Redroot pigweed",[4]; [11],0
same,"Plant response rating, Redroot pigweed",[4]; [12],7
same,Redroot pigweed plant response rating (0 to 10 scale),"[4]; Preemergence, Rate 125 g/ha",10
same,Redroot pigweed plant response rating,"[4]; Preemergence, Rate 250 g/ha",10
same,Redroot pigweed plant response rating,"[4]; Preemergence, Rate 500 g/ha",10
same,Redroot pigweed plant response rating,"[4]; Rate 62 g/ha, Postemergence",0
same,"Plant response rating, Redroot pigweed",[4]; [13],8
same,"Plant response rating, Large crabgrass",[5]; [14],100
same,"Plant response rating, Large crabgrass",[5]; [15],100
same,"Plant response rating, Large crabgrass",[5]; [16],100
same,"Plant response rating, Large crabgrass",[5]; [17],100
same,"Plant response rating, Large crabgrass",[5]; Rate 250 g/ha,100
same,"Plant response rating, Com. groundsel",[6]; [15],40
same,"Plant response rating, Com. groundsel",[6]; [16],100
same,"Plant response rating, Com. groundsel",[6]; [17],100
same,"Plant response rating, Com. groundsel",[6]; Rate 250 g/ha,100
same,"Plant response rating, Morningglory",[7]; [11],2
same,"Plant response rating, Morningglory",[7]; [12],0
same,Morningglory plant response rating (0 to 10 scale),"[7]; Preemergence, Rate 125 g/ha",2
same,Morningglory plant response rating,"[7]; Preemergence, Rate 250 g/ha",2
same,Morningglory plant response rating,"[7]; Preemergence, Rate 500 g/ha",7
same,Morningglory plant response rating,"[7]; Rate 62 g/ha, Postemergence",2
same,"Plant response rating, Morningglory",[7]; [13],8
same,"Plant response rating, Tall Mallow",[8]; [14],10
same,"Plant response rating, Tall Mallow",[8]; [15],10
same,Tall Mallow plant response rating,[8]; [16],20
same,Tall Mallow plant response rating,[8]; [17],50
same,"Plant response rating, Tall Mallow",[8]; Rate 250 g/ha,100
same,"Plant response rating, C. ragweed",[9]; [14],0
same,"Plant response rating, C. ragweed",[9]; [16],0
same,"Plant response rating, C. ragweed",[9]; [17],0
same,"Plant response rating, C. ragweed",[9]; Rate 250 g/ha,50
same,"Plant response rating, Giant foxtail",[10]; [11],8
same,"Plant response rating, Giant foxtail",[10]; [12],10
same,Giant foxtail plant response rating (0 to 10 scale),"[10]; Preemergence, Rate 125 g/ha",10
same,Giant foxtail plant response rating,"[10]; Preemergence, Rate 250 g/ha",10
same,Giant foxtail plant response rating,"[10]; Preemergence, Rate 500 g/ha",10
same,Giant foxtail plant response rating,"[10]; Rate 62 g/ha, Postemergence",8
same,"Plant response rating, Giant foxtail",[10]; [13],9
